This is an account of results in article PMC8002271, “Synthesis and Biological Activity Evaluation of Coumarin-3-Carboxamide Derivatives” (Molecules, 2021).

SMILES strings stand for the structures. pIC50: −log10 of the molar value. ≈ marks a conversion by molar mass, not a printed value. Like-named read-outs stand apart in the source and are kept apart here.

The subject of one data set is B. subtilis TISTR 001. Put plainly: Antibacterial microbroth dilution MIC, B. subtilis. Type of data set: cell-based. The settings on record: Bacillus subtilis, read-out: MIC B. subtilis. Here is the method: (§1) The antibacterial activities of coumarin derivatives 10, 12, 13, 14a–g, and 15 were evaluated against five reference standard bacteria, both gram-positive and gram-negative: B. cereus TISTR 2372, B. subtilis TISTR 001, S. aureus TISTR 2392, E. coli TISTR 073, and S. typhimurium TISTR 2519, using a standard microbroth dilution method.
(§2) The MIC values of coumarin derivatives 10, 12, 13, 14a–g, and 15 were determined through the microbroth dilution method in 96-well microtitre plates. The bacterial cultures were prepared from overnight cultures on nutrient broth (NB) at 37 °C for 24 h by diluting in NB compared with 0.5 McFarland. Coumarin derivatives 10, 12, 13, 14a–g, and 15 (5000 µg/mL) were prepared in EtOH, and 128 µg/mL of these were added to the first wells. Two-fold serial dilutions were prepared, and final concentrations of 128 to 1 µg/mL were achieved. The positive controls for penicillin G were determined, with the final concentrations from 128 to 1 µg/mL. In addition, an extra row of EtOH was used as a vehicle control to determine its possible inhibitory activity. Finally, 10 µL of bacterial suspension was added to each well. After the bacteria were incubated at 37 °C for 24 h, the microtitre plates were visually examined for bacterial growth; the growth rate was monitored at the optical density at 600 nm with a microplate reader.

A further data set relates to HeLa cancer cell line. Put plainly: MTT cell viability assay, HeLa. Type of data set: cell-based. The conditions noted are these: Homo sapiens, HeLa, 24 h, read-out: IC50 HeLa. On the procedure:
(§3) The cell viability assays of coumarin derivatives 10, 12, 13, 14a–g, and 15 were conducted against three cancer cell lines (HepG2, HeLa, and MDA-MB-231) and one normal cell line (LLC-MK2) using an MTT assay.
(§4) Stock solutions of coumarin derivatives 10, 12a, 13, 14a–g, and 15 were prepared in EtOH at a concentration of 5000 µg/mL. Prior to use, the stock solutions were further diluted to 128 µg/mL and added to the first wells. Two-fold serial dilutions were prepared, and final concentrations of 128 to 1 µg/mL in culture medium were achieved. Cells were seeded at a density of 5 × 10^4 cells/well in a 96-well plate and incubated for 16 h, followed by treatment with the test compounds. The control culture contained the carrier solvent of 2.5% dimethyl sulfoxide (DMSO). After 24 h, HepG2, HeLa, MDA-MB-231, and LLC-MK2 cells were then incubated with MTT (500 μg/mL) for 4 h. Then, DMSO was added to dissolve the blue formazan crystals formed, which were formed as a result of the action of cellular oxidoreductase enzymes on the MTT dye. Finally, the optical density at 450 nm was determined using a microplate reader.

The next data set concerns HepG2 cancer cell line. The data set is described as follows: MTT cell viability assay, HepG2. Type of data set: cell-based. The settings on record: Homo sapiens, HepG2, 24 h, read-out: IC50 HepG2. Here is the method: as §3, §4
The subject of another data set is S. aureus TISTR 2392. The data set is described as follows: Antibacterial microbroth dilution MIC, S. aureus. Type of data set: cell-based. The conditions noted are these: Staphylococcus aureus, read-out: MIC S. aureus. Here is the method:
as §1, §2

For data set [1], the system named is S. typhimurium TISTR 2519. Put plainly: Antibacterial microbroth dilution MIC, S. typhimurium. The settings on record: Salmonella enterica, 24 h, read-out: MIC S. typhimurium. Type of data set: cell-based. Here is the method:
as §1, §2

The subject of a further data set is B. cereus TISTR 2372. Put plainly: Antibacterial microbroth dilution MIC, B. cereus. Type of data set: cell-based. The settings on record: Bacillus cereus, read-out: MIC B. cereus. Here is the method: as §1, §2
For a further data set, the system named is E. coli TISTR 073. Put plainly: Antibacterial microbroth dilution MIC, E. coli. Type of data set: cell-based. The settings on record: Escherichia coli, read-out: MIC E. coli. On the procedure: as §1, §2
A further data set has as its system LLC-MK2 normal cell line. The data set is described as follows: MTT cell viability assay, LLC-MK2 normal cells. Type of data set: cell-based. The settings on record: Macaca mulatta, read-out: IC50 LLC-MK2. Here is the method: as §3, §4
[2] abbreviates: TISTR001, Gram-positive, microbroth dilution, 37 °C, 24 h.
Where [3] appears, read: cancer cell line, MTT assay, 24 h treatment.
Where [4] appears, read: TISTR2392, Gram-positive, microbroth dilution, 37 °C, 24 h.
[5] abbreviates: Gram-negative, microbroth dilution, 37 °C.
Where [6] appears, read: TISTR2372, Gram-positive, microbroth dilution, 37 °C, 24 h.
The mark [7] stands for this setting: TISTR073, Gram-negative, microbroth dilution, 37 °C, 24 h.
Setting [8] is: LLC-MK2, normal cell line, MTT assay, 24 h treatment.

For the compound `COc1ccc(NC(=O)c2cc3cc(CC=C(C)C)c(O)cc3oc2=O)cc1` [14g, 7-Hydroxy-N-(4-methoxyphenyl)-6-(3-methylbut-2-en-1-yl)-2-oxo-2H-chromene-3-carboxamide], the melting point was in the range of 259 to 261 °C. Also, the MIC with B. subtilis TISTR 001 (setting [2]) was over 128 µg/mL. In addition, the pIC50 in the data set with HeLa cancer cell line (setting [3]) is under 4.00. For the same compound, the pIC50 in the data set with HepG2 cancer cell line (setting [3]) is under 4.00. Besides, the MIC in the data set with S. aureus TISTR 2392 (setting [4]) is over 128 µg/mL. In addition, the MIC in data set [1] (setting [5]) was over 128 µg/mL. The MIC with B. cereus TISTR 2372 (setting [6]) is over 128 µg/mL. The MIC in the data set on E. coli TISTR 073 (setting [7]) is over 128 µg/mL. The pIC50 in the data set on LLC-MK2 normal cell line (setting [8]) is under 4.00.
`CN(C)c1ccc2cc3ccc(N(C)C)cc3nc2c1` [Acridine orange, acridine orange, reference compound]: the pIC50 is 5.18 in the data set with HeLa cancer cell line (setting [3]), 5.24 with HepG2 cancer cell line (setting [3]) and 4.08 with LLC-MK2 normal cell line (setting [8]).
The like results for `COc1cccc2c1C(=O)c1c(O)c3c(c(O)c1C2=O)C[C@@](O)(C(=O)CO)C[C@@H]3O[C@H]1C[C@H](N)[C@H](O)[C@H](C)O1` [Doxorubicin, doxorubicin, reference compound] were, in that order, 5.93, 5.72 and 4.20.
Regarding `CC1(C)C=Cc2cc3cc(C(=O)O)c(=O)oc3cc2O1` [compound 10, 8,8-dimethyl-2-oxo-2H,8H-pyrano[3,2-g]chromene-3-carboxylic acid], the melting point was in the range of 187 to 188 °C. Further, the MIC in the data set on B. subtilis TISTR 001 (setting [2]) was 128 µg/mL (≈ 470 µM). Also, the pIC50 with HeLa cancer cell line (setting [3]) was 4.09. Also, the pIC50 with HepG2 cancer cell line (setting [3]) is under 4.00. Moreover, in the data set on S. aureus TISTR 2392 (setting [4]), the MIC stood at 64 µg/mL (≈ 235 µM). The MIC in data set [1] (setting [5]) is over 128 µg/mL. In addition, the MIC in the data set on B. cereus TISTR 2372 (setting [6]) stood at 128 µg/mL (≈ 470 µM). Besides, the MIC with E. coli TISTR 073 (setting [7]) was over 128 µg/mL. Moreover, in the data set on LLC-MK2 normal cell line (setting [8]), the pIC50 is under 4.00.
In turn, `CC1(C)C=Cc2cc3cc(C(=O)Nc4ccccc4)c(=O)oc3cc2O1` [compound 12, 8,8-dimethyl-2-oxo-N-phenyl-2H,8H-pyrano[3,2-g]chromene-3-carboxamide] registered a melting point of 187 to 188 °C. Also, the MIC in the data set with B. subtilis TISTR 001 (setting [2]) is over 128 µg/mL. The pIC50 in the data set with HeLa cancer cell line (setting [3]) is under 4.00. The pIC50 in the data set on HepG2 cancer cell line (setting [3]) was 5.63. Also, the MIC in the data set with S. aureus TISTR 2392 (setting [4]) is over 128 µg/mL. Moreover, the MIC in data set [1] (setting [5]) was over 128 µg/mL. Besides, the MIC with B. cereus TISTR 2372 (setting [6]) was over 128 µg/mL. Besides, the MIC with E. coli TISTR 073 (setting [7]) is over 128 µg/mL. Besides, the negative logarithm of the IC50 (pIC50) in the data set on LLC-MK2 normal cell line (setting [8]) was under 4.00.
For the compound `CC(C)=CCc1cc2ccc(=O)oc2cc1O` [compound 15, 6-(3-Methyl-2-buteny1)-7-hydroxycoumarin], the MIC in the data set with B. subtilis TISTR 001 (TISTR001, 24 h) was over 128 µg/mL; with S. aureus TISTR 2392 (TISTR2392, 24 h), over 128 µg/mL; in [1], over 128 µg/mL; with B. cereus TISTR 2372 (TISTR2372, 24 h), over 128 µg/mL; in the data set with E. coli TISTR 073 (TISTR073, 24 h) it was over 128 µg/mL. Besides, the pIC50 is 4.87 in the data set on HeLa cancer cell line; 5.04 in the data set on HepG2 cancer cell line; 5.16 in the data set on LLC-MK2 normal cell line (LLC-MK2, 24 h).
For the compound `CC1(C)S[C@@H]2[C@H](NC(=O)Cc3ccccc3)C(=O)N2[C@H]1C(=O)O` [penicillin G, reference compound], the MIC came to 2 µg/mL (≈ 5.98 µM) in the data set with B. subtilis TISTR 001 (setting [2]); 16 µg/mL (≈ 47.8 µM) in the data set on S. aureus TISTR 2392 (setting [4]); 64 µg/mL (≈ 191 µM) in data set [1] (setting [5]); 16 µg/mL (≈ 47.8 µM) in the data set on B. cereus TISTR 2372 (setting [6]); 32 µg/mL (≈ 95.7 µM) with E. coli TISTR 073 (setting [7]).
